Assay: xn = mol fraction of the nth substance listed
Conditions: Liquid; for mass density: Buoyancy - hydrostatic balance with magnetic suspension - one sinker; for viscosity: Falling or rolling sphere viscometry

C=CCCCCCC [oct-1-ene] + C=CCCCC
Conditions | mass density [kg/m3] | viscosity [mPa·s]
298.15 K, 98 kPa, x1 = 0.2 | 685.08 | 0.317
298.15 K, 98 kPa, x1 = 0.4823 | 696.22 | 0.36
298.15 K, 98 kPa, x1 = 0.6923 | 705.6 | 0.411
298.15 K, 24510 kPa, x1 = 0.2 | 709.99 | 0.395
298.15 K, 24510 kPa, x1 = 0.4823 | 720.99 | 0.444
298.15 K, 24510 kPa, x1 = 0.6923 | 729.5 | 0.511
298.15 K, 49030 kPa, x1 = 0.2 | 727.77 | 0.473
298.15 K, 49030 kPa, x1 = 0.4823 | 736.94 | 0.537
298.15 K, 49030 kPa, x1 = 0.6923 | 745.31 | 0.618
298.15 K, 98060 kPa, x1 = 0.2 | 754.11 | 0.644
298.15 K, 98060 kPa, x1 = 0.4823 | 765.67 | 0.737
298.15 K, 98060 kPa, x1 = 0.6923 | 771.37 | 0.859
298.15 K, 196130 kPa, x1 = 0.2 | 792.06 | 1.053
298.15 K, 196130 kPa, x1 = 0.4823 | 801.39 | 1.225
298.15 K, 196130 kPa, x1 = 0.6923 | 806.92 | 1.47
302.9 K, 98 kPa, x1 = 0.6923 | 703 | 0.396
303.67 K, 98 kPa, x1 = 0.4823 | 692.48 | 0.347
305.25 K, 98 kPa, x1 = 0.2 | 679.54 | 0.304
312.9 K, 98 kPa, x1 = 0.6923 | 696.34 | 0.36
313.35 K, 98 kPa, x1 = 0.4823 | 685.54 | 0.319
313.65 K, 98 kPa, x1 = 0.2 | 672.69 | 0.283
322.39 K, 196130 kPa, x1 = 0.6923 | 796.19 | 1.133
322.63 K, 98060 kPa, x1 = 0.6923 | 759.23 | 0.688
322.7 K, 49030 kPa, x1 = 0.6923 | 730.47 | 0.497
322.74 K, 24510 kPa, x1 = 0.6923 | 712.73 | 0.41
322.86 K, 98 kPa, x1 = 0.6923 | 688.08 | 0.325
322.95 K, 196130 kPa, x1 = 0.2 | 781.57 | 0.842
323.14 K, 98060 kPa, x1 = 0.2 | 743.21 | 0.525
323.23 K, 24510 kPa, x1 = 0.2 | 692.21 | 0.323
323.24 K, 49030 kPa, x1 = 0.2 | 714.09 | 0.388
323.28 K, 98 kPa, x1 = 0.2 | 664.43 | 0.256
323.53 K, 196130 kPa, x1 = 0.4823 | 791.05 | 0.962
323.71 K, 98060 kPa, x1 = 0.4823 | 753.36 | 0.589
323.72 K, 49030 kPa, x1 = 0.4823 | 723.85 | 0.434
323.73 K, 24510 kPa, x1 = 0.4823 | 705.99 | 0.358
323.86 K, 98 kPa, x1 = 0.4823 | 678.22 | 0.285
354.41 K, 196130 kPa, x1 = 0.2 | 767.99 | 0.675
354.53 K, 196130 kPa, x1 = 0.4823 | 778.99 | 0.757
354.58 K, 98060 kPa, x1 = 0.4823 | 737.84 | 0.478
354.59 K, 49030 kPa, x1 = 0.4823 | 705.39 | 0.354
354.61 K, 24510 kPa, x1 = 0.4823 | 683.97 | 0.291
354.84 K, 98060 kPa, x1 = 0.2 | 727.23 | 0.428
355.02 K, 24510 kPa, x1 = 0.2 | 671.58 | 0.259
355.04 K, 49030 kPa, x1 = 0.2 | 694.07 | 0.317
355.16 K, 98060 kPa, x1 = 0.6923 | 741.82 | 0.544
355.27 K, 49030 kPa, x1 = 0.6923 | 713.02 | 0.398
355.35 K, 196130 kPa, x1 = 0.6923 | 782.46 | 0.876
355.44 K, 24510 kPa, x1 = 0.6923 | 691.53 | 0.327
390.42 K, 196130 kPa, x1 = 0.4823 | 763 | 0.614
390.6 K, 196130 kPa, x1 = 0.6923 | 764.29 | 0.684
390.61 K, 98060 kPa, x1 = 0.4823 | 718.3 | 0.392
390.66 K, 24510 kPa, x1 = 0.6923 | 668.32 | 0.258
390.68 K, 98060 kPa, x1 = 0.6923 | 722.16 | 0.433
390.73 K, 24510 kPa, x1 = 0.4823 | 661.95 | 0.233
390.76 K, 49030 kPa, x1 = 0.4823 | 683.17 | 0.286
390.89 K, 49030 kPa, x1 = 0.6923 | 690.6 | 0.319
395.05 K, 196130 kPa, x1 = 0.2 | 750.63 | 0.535
395.31 K, 98060 kPa, x1 = 0.2 | 706.62 | 0.345
395.33 K, 49030 kPa, x1 = 0.2 | 668.64 | 0.253
395.52 K, 24510 kPa, x1 = 0.2 | 641.62 | 0.205
432.98 K, 196130 kPa, x1 = 0.2 | 733.67 | 0.451
433.17 K, 196130 kPa, x1 = 0.6923 | 744.1 | 0.549
433.2 K, 98060 kPa, x1 = 0.6923 | 698.66 | 0.349
433.33 K, 49030 kPa, x1 = 0.6923 | 664.02 | 0.255
433.38 K, 24510 kPa, x1 = 0.6923 | 641.38 | 0.204
433.51 K, 98060 kPa, x1 = 0.2 | 682.68 | 0.289
433.58 K, 49030 kPa, x1 = 0.2 | 642.37 | 0.213
433.62 K, 24510 kPa, x1 = 0.2 | 614.08 | 0.169
435.46 K, 196130 kPa, x1 = 0.4823 | 741.63 | 0.489
435.49 K, 24510 kPa, x1 = 0.4823 | 631.36 | 0.184
435.61 K, 98060 kPa, x1 = 0.4823 | 693.82 | 0.318
435.7 K, 49030 kPa, x1 = 0.4823 | 656.28 | 0.232
467.82 K, 196130 kPa, x1 = 0.4823 | 725.29 | 0.447
467.87 K, 196130 kPa, x1 = 0.2 | 715.63 | 0.403
467.95 K, 49030 kPa, x1 = 0.4823 | 636.15 | 0.207
467.96 K, 24510 kPa, x1 = 0.4823 | 610.74 | 0.162
468.04 K, 98060 kPa, x1 = 0.2 | 661.09 | 0.262
468.06 K, 98060 kPa, x1 = 0.4823 | 675.8 | 0.285
468.07 K, 49030 kPa, x1 = 0.2 | 620.58 | 0.19
468.18 K, 24510 kPa, x1 = 0.2 | 589.18 | 0.148
469.83 K, 98060 kPa, x1 = 0.6923 | 677.9 | 0.311
469.84 K, 196130 kPa, x1 = 0.6923 | 725.11 | 0.482
470.05 K, 49030 kPa, x1 = 0.6923 | 641.64 | 0.224
470.16 K, 24510 kPa, x1 = 0.6923 | 618.99 | 0.176

Source: the NIST ThermoML archive (doi:10.1016/j.tca.2014.08.016)
